Results on 44 compounds are retold here after patent US8163732B2, “Tricyclic heteroaryl compounds useful as inhibitors of Janus kinase” (Vertex Pharmaceuticals Incorporated, priority 2005, dated 2012).

Bounds are passed on as bounds.

One test addresses JAK-2 (Homo sapiens, UniProt O60674). Description: JAK-2 inhibition assay. The test is classed as biochemical.
The target in the next test is T1, JAK-3 (Homo sapiens, UniProt P52333).
T1 sequence (P52333 1-1124): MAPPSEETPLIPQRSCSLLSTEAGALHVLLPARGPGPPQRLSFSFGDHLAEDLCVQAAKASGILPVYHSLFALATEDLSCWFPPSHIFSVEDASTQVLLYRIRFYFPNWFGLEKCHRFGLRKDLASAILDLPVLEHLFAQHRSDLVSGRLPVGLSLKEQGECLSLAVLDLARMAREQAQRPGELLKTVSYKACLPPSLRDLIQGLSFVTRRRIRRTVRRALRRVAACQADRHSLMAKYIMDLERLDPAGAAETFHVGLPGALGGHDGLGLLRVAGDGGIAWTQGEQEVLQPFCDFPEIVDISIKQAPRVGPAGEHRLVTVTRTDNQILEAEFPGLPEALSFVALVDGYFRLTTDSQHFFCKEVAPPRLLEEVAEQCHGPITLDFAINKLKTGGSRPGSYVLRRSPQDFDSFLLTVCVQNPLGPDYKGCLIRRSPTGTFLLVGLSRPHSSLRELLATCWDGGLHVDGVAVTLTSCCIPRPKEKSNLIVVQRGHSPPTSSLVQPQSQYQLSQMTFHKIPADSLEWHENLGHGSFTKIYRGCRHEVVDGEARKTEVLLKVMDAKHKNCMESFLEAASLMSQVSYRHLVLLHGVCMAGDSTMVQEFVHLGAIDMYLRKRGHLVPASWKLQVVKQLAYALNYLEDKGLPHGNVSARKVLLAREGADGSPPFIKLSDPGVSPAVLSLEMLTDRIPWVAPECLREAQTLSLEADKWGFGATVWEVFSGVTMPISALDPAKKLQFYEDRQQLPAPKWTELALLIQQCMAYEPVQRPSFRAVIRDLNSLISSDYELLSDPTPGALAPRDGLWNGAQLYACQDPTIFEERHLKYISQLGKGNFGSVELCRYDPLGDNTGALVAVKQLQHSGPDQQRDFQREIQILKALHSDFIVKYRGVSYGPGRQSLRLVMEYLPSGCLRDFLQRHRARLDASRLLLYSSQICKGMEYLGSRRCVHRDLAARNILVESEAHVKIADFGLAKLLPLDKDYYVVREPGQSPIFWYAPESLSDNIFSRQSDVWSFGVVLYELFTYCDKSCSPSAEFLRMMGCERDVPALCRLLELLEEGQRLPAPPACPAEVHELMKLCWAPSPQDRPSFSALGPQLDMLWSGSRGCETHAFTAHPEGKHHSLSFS
Kind of test: JAK-3 inhibition assay. The test is classed as biochemical. The method, then:
Compounds were screened for their ability to inhibit JAK using the assay shown below. Reactions were carried out in a kinase buffer containing 100 mM HEPES (pH 7.4), 1 mM DTT, 10 mM MgCl2, 25 mM NaCl, and 0.01% BSA.
Substrate concentrations in the assay were 5 μM ATP (200 μCi/μmole ATP) and 1 μM poly(Glu)4Tyr. Reactions were carried out at 25° C. and 1 nM JAK-3.
To each well of a 96 well polycarbonate plate was added 1.5 μL of a candidate JAK-3 inhibitor along with 50 μL of kinase buffer containing 2 μM poly(Glu)4Tyr and 10 μM ATP. This was then mixed and 50 μL of kinase buffer containing 2 nM JAK-3 enzyme was added to start the reaction. After 20 minutes at room temperature (25° C.), the reaction was stopped with 50 μL of 20% trichloroacetic acid (TCA) that also contained 0.4 mM ATP. The entire contents of each well were then transferred to a 96 well glass fiber filter plate using a TomTek Cell Harvester. After washing, 60 μL of scintillation fluid was added and ^33P incorporation detected on a Perkin Elmer TopCount. After removing the mean background values for all of the data points, the data were fit using Prism software to obtain a Ki value (app).

Chain of JAK-2 (O60674 whole entry): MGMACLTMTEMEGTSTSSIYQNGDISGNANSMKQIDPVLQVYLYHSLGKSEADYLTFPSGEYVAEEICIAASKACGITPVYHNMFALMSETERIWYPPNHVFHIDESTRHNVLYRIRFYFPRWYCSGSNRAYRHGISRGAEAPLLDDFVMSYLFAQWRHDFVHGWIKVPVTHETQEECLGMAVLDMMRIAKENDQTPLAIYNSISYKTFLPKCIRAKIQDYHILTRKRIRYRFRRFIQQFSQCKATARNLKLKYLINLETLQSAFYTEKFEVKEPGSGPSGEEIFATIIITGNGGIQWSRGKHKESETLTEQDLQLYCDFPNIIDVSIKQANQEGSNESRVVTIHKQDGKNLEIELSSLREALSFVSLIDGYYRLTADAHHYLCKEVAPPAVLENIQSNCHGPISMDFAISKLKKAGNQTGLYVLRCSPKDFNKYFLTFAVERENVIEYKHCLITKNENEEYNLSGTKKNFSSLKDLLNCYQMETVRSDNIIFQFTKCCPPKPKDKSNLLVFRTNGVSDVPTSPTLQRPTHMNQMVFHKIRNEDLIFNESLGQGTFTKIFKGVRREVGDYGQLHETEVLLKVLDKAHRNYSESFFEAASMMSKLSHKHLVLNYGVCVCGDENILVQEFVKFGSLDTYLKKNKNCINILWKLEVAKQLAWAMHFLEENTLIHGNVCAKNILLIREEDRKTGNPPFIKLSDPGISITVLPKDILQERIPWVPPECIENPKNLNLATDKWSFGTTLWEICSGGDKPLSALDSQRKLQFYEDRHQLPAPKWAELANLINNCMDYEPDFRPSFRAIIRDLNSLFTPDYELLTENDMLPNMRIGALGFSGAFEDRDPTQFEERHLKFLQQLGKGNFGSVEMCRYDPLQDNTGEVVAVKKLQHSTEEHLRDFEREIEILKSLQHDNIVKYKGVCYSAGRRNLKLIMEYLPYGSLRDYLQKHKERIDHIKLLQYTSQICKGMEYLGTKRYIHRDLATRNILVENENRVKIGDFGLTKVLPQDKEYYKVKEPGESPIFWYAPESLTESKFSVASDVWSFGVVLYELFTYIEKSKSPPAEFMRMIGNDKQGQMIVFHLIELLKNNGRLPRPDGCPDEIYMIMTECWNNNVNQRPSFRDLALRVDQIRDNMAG

As a reminder, the Ki is the dissociation constant of the complex between target and ligand, obtained from inhibition or displacement. `Cn1cc2c3c(ccnc31)-c1cccnc1NC2c1ccc(O)c(Cl)c1` (stereo not shown) [Compound 95]: the Ki at JAK-2 was less than 250 nM; at JAK-3, not above 250 nM.
Regarding `Cn1cc2c3c(ccnc31)-c1cccnc1NC2c1ccc(O)cc1` (stereo not shown) [Compound 96], the Ki on JAK-2 was less than 250 nM; at JAK-3, 250 to 2500 nM.
Turning to `Oc1ccc(C2Nc3ncccc3-c3ccnc4[nH]cc2c34)cc1` (stereo not shown) [Compound 97], the Ki on JAK-2 is less than 250 nM; at JAK-3, not above 250 nM.
As to `COC(=O)Nc1ccc(C2Nc3ccccc3-c3ccnc4[nH]cc2c34)cc1` (stereo not shown) [Compound 99], the results for the Ki on JAK-2 and at JAK-3 were more than 2500 nM and 250 to 2500 nM, respectively.
In the case of `COC(=O)Nc1ccc(C2c3c[nH]c4nccc(c34)-c3ccccc3N2C(=O)OC)cc1` (stereo not shown) [Compound 100], the Ki at JAK-2 is more than 2500 nM; on JAK-3, 250 to 2500 nM.
For `COC(=O)Nc1ccc(C2c3cn(C(=O)OC)c4nccc(c34)-c3ccccc3N2C(=O)OC)cc1` (stereo not shown) [Compound 101], in that order: more than 2500 nM and more than 2500 nM.
For `COC(=O)C1(c2ccc(N)cc2)Nc2ccccc2-c2ccnc3[nH]cc1c23` (stereo not shown) [Compound 102], in that order: more than 2500 nM and more than 2500 nM.
Consider `Oc1ccc(C2Nc3ccccc3-c3ccnc4[nH]cc2c34)cc1C(F)(F)F` (stereo not shown) [Compound 104], for which the Ki on JAK-2 and at JAK-3 was 250 to 2500 nM throughout.
For `Oc1c(F)cc(C2Nc3ccccc3-c3ccnc4[nH]cc2c34)cc1F` (stereo not shown) [Compound 106], the figures for the Ki at JAK-2 and on JAK-3 were less than 250 nM and not above 250 nM, respectively.
The like results for `CC(C)(C)c1cc(C2Nc3ccccc3-c3ccnc4[nH]cc2c34)cc(C(C)(C)C)c1O` (stereo not shown) [Compound 108] were, in that order, more than 2500 nM and more than 2500 nM.
The like results for `C1=Nc2ccccc2-c2ccnc3[nH]cc1c23` [Compound 109] were, in that order, 250 to 2500 nM and 250 to 2500 nM.
For `O=C(O)c1cc(C2Nc3ccccc3-c3ccnc4[nH]cc2c34)ccc1O` (stereo not shown) [Compound 110], in that order: more than 2500 nM and more than 2500 nM.
With `COC(=O)c1cc(C2Nc3ccccc3-c3ccnc4[nH]cc2c34)ccc1O` (stereo not shown) [Compound 111], the Ki at JAK-2 and on JAK-3 was more than 2500 nM each time.
`COc1cc(C2Nc3ccccc3-c3ccnc4[nH]cc2c34)cc(Cl)c1O` (stereo not shown) [Compound 112]: the Ki was less than 250 nM at JAK-2 and not above 250 nM on JAK-3.
The like results for `Oc1ccc(C2=Nc3ccccc3-c3ccnc4[nH]cc2c34)cc1OC(F)(F)F` [Compound 113] were, in that order, less than 250 nM and not above 250 nM.
For `Oc1ccc(C2Nc3ccccc3-c3ccnc4[nH]cc2c34)cc1OC(F)(F)F` (stereo not shown) [Compound 114], in that order: 250 to 2500 nM and 250 to 2500 nM.
For `Oc1c(F)cc(C2Nc3ccccc3-c3ncnc4[nH]cc2c34)cc1F` (stereo not shown) [Compound 115], the inhibition constant (Ki) is less than 250 nM at JAK-2 and not above 250 nM at JAK-3.
`Cn1cc2c3c(ncnc31)-c1ccccc1NC2c1ccc(O)c(F)c1` (stereo not shown) [Compound 117]: the Ki on JAK-2 was less than 250 nM; at JAK-3, not above 250 nM.
In the case of `c1ccc2c(c1)NC(c1ccc(-n3ccnc3)cc1)c1c[nH]c3nccc-2c13` (stereo not shown) [Compound 119], the Ki at JAK-2 and on JAK-3 was 250 to 2500 nM each time.
Consider `c1ccc2c(c1)NC(c1ccc(-n3cncn3)cc1)c1c[nH]c3nccc-2c13` (stereo not shown) [Compound 120], for which the Ki at JAK-2 and at JAK-3 was more than 2500 nM throughout.
Turning to `CS(=O)(=O)c1ccc(C2Nc3ccccc3-c3ccnc4[nH]cc2c34)cc1` (stereo not shown) [Compound 121], the Ki at JAK-2 and on JAK-3 was more than 2500 nM each time.
Regarding `[O-][n+]1ccc(C2Nc3ccccc3-c3ccnc4[nH]cc2c34)cc1` (stereo not shown) [Compound 122], the Ki on JAK-2 and at JAK-3 was more than 2500 nM throughout.
On to `Cc1cc(C2Nc3ccccc3-c3ccnc4[nH]cc2c34)sc1C` (stereo not shown) [Compound 124], for which the Ki on JAK-2 and on JAK-3 was 250 to 2500 nM each time.
Regarding `COc1ccc(C2NC(=O)c3ccccc3-c3ccnc4[nH]cc2c34)cc1` (stereo not shown) [Compound 126], the Ki at JAK-2 and at JAK-3 was more than 2500 nM each time.
With `O=C1NC(c2ccc(O)cc2F)c2c[nH]c3nccc(c23)-c2ccccc21` (stereo not shown) [Compound 127], the figures for the inhibitory constant (Ki) at JAK-2 and on JAK-3 were less than 250 nM and 250 to 2500 nM, respectively.
For `OB(O)c1ccc(C2Nc3ccccc3-c3ccnc4[nH]cc2c34)cc1` (stereo not shown) [Compound 128], in that order: less than 250 nM and not above 250 nM.
As for `COc1ccc(C2NC(=O)c3ccccc3-c3ccnc4[nH]cc2c34)cc1C` (stereo not shown) [Compound 129], the inhibition constant Ki at JAK-2 and at JAK-3 was more than 2500 nM in each case.
As to `CCOC(=O)C1(c2ccc(OC)c(F)c2)Nc2ccccc2-c2ccnc3[nH]cc1c23` (stereo not shown) [Compound 130], the Ki at JAK-2 was less than 250 nM; on JAK-3, 250 to 2500 nM.
The like results for `Clc1ccccc1COc1cccc(C2Nc3ccccc3-c3ccnc4[nH]cc2c34)c1` (stereo not shown) [Compound 131] were, in that order, less than 250 nM and 250 to 2500 nM.
With `Cc1ccc(COc2ccccc2C2Nc3ccccc3-c3ccnc4[nH]cc2c34)cc1` (stereo not shown) [Compound 132], the Ki on JAK-2 and at JAK-3 was more than 2500 nM in each case.
Turning to `Cc1cc(O)ccc1C1Nc2ccccc2-c2ccnc3[nH]cc1c23` (stereo not shown) [Compound 133], the Ki at JAK-2 was less than 250 nM; at JAK-3, not above 250 nM.
The like results for `FC(F)(F)Oc1ccc(C2Nc3ccccc3-c3ccnc4[nH]cc2c34)cc1` (stereo not shown) [Compound 134] were, in that order, 250 to 2500 nM and 250 to 2500 nM.
In the case of `COc1ccc(C2Nc3ccccc3-c3ccnc4[nH]cc2c34)cc1` (stereo not shown) [Compound 135], the inhibition constant (Ki) on JAK-2 is less than 250 nM; at JAK-3, not above 250 nM.
The like results for `FC(F)(F)c1ccc(C2Nc3ccccc3-c3ccnc4[nH]cc2c34)cc1` (stereo not shown) [Compound 136] were, in that order, more than 2500 nM and more than 2500 nM.
Consider `Cc1ccc(C2Nc3ccccc3-c3ccnc4[nH]cc2c34)cc1` (stereo not shown) [Compound 137], for which the Ki on JAK-2 is 250 to 2500 nM; at JAK-3, more than 2500 nM.
On to `Cc1cc(C2Nc3ccccc3-c3ccnc4[nH]cc2c34)ccc1F` (stereo not shown) [Compound 138], for which the Ki at JAK-2 and at JAK-3 was more than 2500 nM each time.
In the case of `O=[N+]([O-])c1cc(C2Nc3ccccc3-c3ccnc4[nH]cc2c34)ccc1O` (stereo not shown) [Compound 139], the Ki on JAK-2 and at JAK-3 was 250 to 2500 nM in each case.
In the case of `Cc1cc(C2Nc3ccccc3-c3ccnc4[nH]cc2c34)ccc1O` (stereo not shown) [Compound 140], the Ki on JAK-2 was less than 250 nM; at JAK-3, not above 250 nM.
For `c1ccc2c(c1)NC(c1ccc3c(c1)CCO3)c1c[nH]c3nccc-2c13` (stereo not shown) [Compound 141], the values for the Ki at JAK-2 and on JAK-3 were less than 250 nM and 250 to 2500 nM, respectively.
For `COc1ccc(C2Nc3ccccc3-c3ccnc4[nH]cc2c34)c(OC)c1` (stereo not shown) [Compound 142], in that order: more than 2500 nM and more than 2500 nM.
For `c1ccc(-c2onc3ccc(C4Nc5ccccc5-c5ccnc6[nH]cc4c56)cc23)cc1` (stereo not shown) [Compound 143], the Ki on JAK-2 and on JAK-3 was more than 2500 nM in each case.
In the case of `c1ccc2c(c1)NC(c1ccc3nsnc3c1)c1c[nH]c3nccc-2c13` (stereo not shown) [Compound 144], the Ki at JAK-2 was 250 to 2500 nM; on JAK-3 it was more than 2500 nM.
The like results for `CC(C)Oc1ccc(C2Nc3ccccc3-c3ccnc4[nH]cc2c34)cc1` (stereo not shown) [Compound 145] were, in that order, less than 250 nM and 250 to 2500 nM.
`CCCOc1ccc(C2Nc3ccccc3-c3ccnc4[nH]cc2c34)cc1` (stereo not shown) [Compound 146]: the figures for the Ki on JAK-2 and on JAK-3 were less than 250 nM and not above 250 nM, respectively.
